molecular target: T1, Human Recombinant Matriptase 2 (Homo sapiens, UniProt Q8IU80); experiment: Matriptase 2 fluorescence based inhibition assay, Method A (100 mM TRIS pH 9, 1 mg/mL BSA); type: biochemical; settings: 1 uM; Assay Used A; read-out: Mar-2 % inhibition at 1 uM
T1 construct: purchased Enzo Life Sciences (an in-house preparation was also used) ALX-201-752-1
T1 sequence (Q8IU80 1-811): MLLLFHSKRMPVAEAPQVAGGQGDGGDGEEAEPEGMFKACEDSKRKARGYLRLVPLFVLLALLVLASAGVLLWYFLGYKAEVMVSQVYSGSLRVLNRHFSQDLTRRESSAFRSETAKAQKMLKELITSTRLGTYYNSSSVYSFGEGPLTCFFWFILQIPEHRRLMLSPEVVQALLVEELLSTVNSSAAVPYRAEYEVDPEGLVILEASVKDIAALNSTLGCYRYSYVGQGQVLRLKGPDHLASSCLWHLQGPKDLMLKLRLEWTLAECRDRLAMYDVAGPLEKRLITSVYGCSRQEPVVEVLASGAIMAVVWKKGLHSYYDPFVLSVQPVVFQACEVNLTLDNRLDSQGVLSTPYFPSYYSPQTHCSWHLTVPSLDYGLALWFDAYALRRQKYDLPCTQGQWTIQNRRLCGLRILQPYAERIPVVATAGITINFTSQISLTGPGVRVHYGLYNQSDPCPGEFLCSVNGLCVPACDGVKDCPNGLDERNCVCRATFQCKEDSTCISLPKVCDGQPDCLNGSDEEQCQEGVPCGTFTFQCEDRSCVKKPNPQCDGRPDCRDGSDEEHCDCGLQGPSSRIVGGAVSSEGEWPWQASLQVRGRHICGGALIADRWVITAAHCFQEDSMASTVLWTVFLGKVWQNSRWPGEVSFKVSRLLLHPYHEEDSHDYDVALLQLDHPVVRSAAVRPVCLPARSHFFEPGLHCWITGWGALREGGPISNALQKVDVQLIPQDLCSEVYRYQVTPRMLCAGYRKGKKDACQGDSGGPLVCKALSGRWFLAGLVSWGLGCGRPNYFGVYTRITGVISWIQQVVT
Protocol: Test compounds were evaluated for their potential to inhibit Human Recombinant Matriptase 2 (in-house and commercial protein from Enzo Life Sciences—cat log -ALX-201-752-1) using fluorescence based assay. The concentration of Recombinant Matriptase 2 and the substrate used in the assay was: 7 nM (commercial) and 15 nM (Inhouse Matriptase 2) and 100 μM (Boc-Gln-Ala-Arg-7-amido-4-methyl coumarin hydrobromide—Cat log: B4153-Sigma) respectively. The assay buffer used was 100 mM TRIS pH 9, 1 mg/mL BSA. The assay was performed using 384 well black flat bottom plate from grenier (Cat log: 781076) at 25° C. The enzyme and compound was preincubated for 30 mins, plate was read 60 mins after substrate addition at wavelength Ex: 360/Em: 480 nm. The final assay volume was 20 μl. Stock solution of compounds were initially prepared in DMSO and appropriate dilutions were made for screening and IC50 determination (final DMSO conc in the assay was 1%). All the measurements were carried out using the Spectramax M5, Molecular devices. The compounds were screened at 1 and 10 μM concentration and IC50 was determined for the interested compounds.
To determine IC50 values, dose response curves were generated by plotting percentage inhibition as a function of inhibitor concentration and the data was fitted to sigmoidal non-linear regression equation (variable slope) using Graph Pad prism software V7.

| SMILES | inhibition at 1 µM [%] |
| --- | --- |
| N=C(N)c1ccc2cc(C(=O)N[C@H]3CC[C@H](NC(=O)c4ccccn4)CC3)n(Cc3ccc(C(F)(F)F)cc3)c2c1 [Compound I-9, 6-carbamimidoyl-N-((1r,4r)-4-(picolinamido)cyclohexyl)-1-(4-(trifluoromethyl)benzyl)-1H-indole-2-carboxamide] | 25 to 50 |
| N=C(N)c1ccc2cc(C(=O)NCC3CCCCC3)n(Cc3ccc(C(F)(F)F)cc3)c2c1 [Compound I-10] | 25 to 50 |
| N=C(N)c1ccc2cc(C(=O)NC3CCC(N)CC3)n(Cc3ccc(OC(F)(F)F)cc3)c2c1 (stereo not shown) [Compound I-11] | 25 to 50 |
| N=C(N)c1ccc2cc(C(=O)NCC3CCCCC3)n(Cc3ccc(OC(F)(F)F)cc3)c2c1 [Compound I-12] | 0 to 25 |
| CSc1ccc(Cn2c(C(=O)NC3CCC(N)CC3)cc3ccc(C(=N)N)cc32)cc1 (stereo not shown) [Compound I-13] | 50 to 75 |
| CC(C)c1ccc(Cn2c(C(=O)N[C@H]3CC=CCC3)cc3ccc(C(=N)N)cc32)cc1 [Compound I-14] | 0 to 25 |
| CC(C)c1ccc(Cn2c(C(=O)NC3CCC(F)(F)CC3)cc3ccc(C(=N)N)cc32)cc1 [Compound I-15] | 0 to 25 |
| CC(C)c1ccc(Cn2c(C(=O)NCC3CCCCC3)cc3ccc(C(=N)N)cc32)cc1 [Compound I-16] | 0 to 25 |
| CC(C)(C)c1ccc(Cn2c(C(=O)NC3CCC(N)CC3)cc3ccc(C(=N)N)cc32)cc1 (stereo not shown) [Compound I-17] | 50 to 75 |
| N=C(N)c1ccc2cc(C(=O)N[C@H]3CC[C@H](N)CC3)n(Cc3cccnc3)c2c1 [Compound I-18] | 25 to 50 |
| N=C(N)c1ccc2cc(C(=O)N[C@H]3CC[C@H](N)CC3)n(Cc3ccncc3)c2c1 [Compound I-19] | 25 to 50 |
| N=C(N)c1ccc2cc(C(=O)N[C@H]3CC[C@H](N)CC3)n(Cc3ccc(C(=O)O)cc3)c2c1 [Compound I-20, 4-((2-(((1r,4r)-4-aminocyclohexyl)carbamoyl)-6-carbamimidoyl-1H-indol-1-yl)methyl)benzoic Acid] | 25 to 50 |
| COC(=O)c1ccc(Cn2c(C(=O)N[C@H]3CC[C@H](N)CC3)cc3ccc(C(=N)N)cc32)cc1 [Compound I-21, Methyl 4-((2-(((1r,4r)-4-aminocyclohexyl)carbamoyl)-6-carbamimidoyl-1H-indol-1-yl)methyl)-benzoate] | 50 to 75 |
| CCOC(=O)c1ccc(Cn2c(C(=O)N[C@H]3CC[C@H](N)CC3)cc3ccc(C(=N)N)cc32)cc1 [Compound I-22, Ethyl 4-((2-(((1r,4r)-4-aminocyclohexyl)carbamoyl)-6-carbamimidoyl-1H-indol-1-yl)methyl)-benzoate] | 25 to 50 |
| N=C(N)c1ccc2cc(C(=O)NCc3cccc(CN)c3)n(CCc3ccccc3)c2c1 [Compound I-24] | 0 to 25 |
| N=C(N)c1ccc2cc(C(=O)Nc3ccc(C(N)=O)cc3)n(CCc3ccccc3)c2c1 [Compound I-25] | 0 to 25 |
| N=C(N)c1ccc2cc(C(=O)Nc3cccc(C(N)=O)c3)n(CCc3ccccc3)c2c1 [Compound I-26] | 0 to 25 |
| N=C(N)c1ccc2cc(C(=O)N[C@H]3CC[C@H](N)CC3)n(CCc3ccccc3)c2c1 [Compound I-27] | 50 to 75 |

The remaining lines, values ahead:

| inhibition at 1 µM [%] | SMILES |
| --- | --- |
| 25 to 50 | N=C(N)c1ccc2cc(C(=O)NC3CCN(CCN)CC3)n(CCc3ccccc3)c2c1 [Compound I-28, N-(1-(2-Aminoethyl)piperidin-4-yl)-6-carbamimidoyl-1-phenethyl-1H-indole-2-carboxamide] |
| 25 to 50 | N=C(N)c1ccc2cc(C(=O)N[C@H]3CC[C@H](N)CC3)n(CCc3ccc(F)cc3)c2c1 [Compound I-30] |
| 25 to 50 | N=C(N)c1ccc2cc(C(=O)N[C@H]3CC[C@H](N)CC3)n(CCc3cccc(Br)c3)c2c1 [Compound I-31] |
| 25 to 50 | COc1ccc(CCn2c(C(=O)N[C@H]3CC[C@H](N)CC3)cc3ccc(C(=N)N)cc32)cc1 [Compound I-32] |
| 0 to 25 | N=C(N)c1ccc2c(N)c(C(=O)N[C@H]3CC[C@H](N)CC3)n(CCc3ccc(C(F)(F)F)cc3)c2c1 [Compound I-33, 3-Amino-N-((1r,4r)-4-aminocyclohexyl)-6-carbamimidoyl-1-(4-(trifluoromethyl)-phenethyl)-1H-indole-2-carboxamide] |
| 25 to 50 | N=C(N)c1ccc2cc(C(=O)N[C@H]3CC[C@H](N)CC3)n(CCCc3ccccc3)c2c1 [Compound I-34] |
| 25 to 50 | CCc1ccc(-c2cccc(CCn3c(C(=O)N[C@H]4CC[C@H](N)CC4)cc4ccc(C(=N)N)cc43)c2)cc1 [Compound I-35] |
| 25 to 50 | N=C(N)c1ccc2cc(C(=O)N[C@H]3CC[C@H](N)CC3)n(CS(=O)(=O)c3ccccc3)c2c1 [Compound I-39] |
| 0 to 25 | N=C(N)c1ccc2cc(C(=O)Nc3cccc(C(F)(F)F)c3)n(CCS(=O)(=O)c3ccccc3)c2c1 [Compound I-40, 6-Carbamimidoyl-1-(2-(phenylsulfonyl)ethyl)-N-(3-(trifluoromethyl)phenyl)-1H-indole-2-carboxamide] |
| 0 to 25 | N=C(N)c1ccc2cc(C(=O)Nc3cccc(F)c3)n(CCS(=O)(=O)c3ccccc3)c2c1 [Compound I-41] |
| 0 to 25 | N=C(N)c1ccc2cc(C(=O)Nc3ccc(F)cc3)n(CCS(=O)(=O)c3ccccc3)c2c1 [Compound I-42] |
| 0 to 25 | N=C(N)c1ccc2cc(C(=O)Nc3ccc(C(F)(F)F)cc3)n(CCS(=O)(=O)c3ccccc3)c2c1 [Compound I-43] |
| 0 to 25 | N=C(N)c1ccc2cc(C(=O)Nc3ccc(N4CCCC4)cc3)n(CCS(=O)(=O)c3ccccc3)c2c1 [Compound I-44] |
| 0 to 25 | CC1CCC(NC(=O)c2cc3ccc(C(=N)N)cc3n2CCS(=O)(=O)c2ccccc2)CC1 (stereo not shown) [Compound I-46] |
| 0 to 25 | N=C(N)c1ccc2cc(C(=O)N[C@@H]3CC=CCC3)n(CCS(=O)(=O)c3ccccc3)c2c1 [Compound I-47] |
| 25 to 50 | N=C(N)c1ccc2cc(C(=O)NC3CCC(F)(F)CC3)n(CCS(=O)(=O)c3ccccc3)c2c1 [Compound I-48] |
| 0 to 25 | N=C(N)c1ccc2cc(C(=O)NCC3CCCCC3)n(CCS(=O)(=O)c3ccccc3)c2c1 [Compound I-49] |
| 50 to 75 | N=C(N)c1ccc2cc(C(=O)NCC3CCNCC3)n(CCS(=O)(=O)c3ccccc3)c2c1 [Compound I-50] |
| 25 to 50 | N=C(N)c1ccc2cc(C(=O)NC[C@H]3CCCNC3)n(CCS(=O)(=O)c3ccccc3)c2c1 [Compound I-51] |
| 0 to 25 | N=C(N)c1ccc2cc(C(=O)NCC3CCC(O)CC3)n(CCS(=O)(=O)c3ccccc3)c2c1 (stereo not shown) [Compound I-52] |
| 0 to 25 | N=C(N)c1ccc2cc(C(=O)NCC3CCC(F)(F)CC3)n(CCS(=O)(=O)c3ccccc3)c2c1 [Compound I-54] |
| 0 to 25 | N=C(N)c1ccc2c([N+](=O)[O-])c(C(=O)N[C@H]3CC[C@H](N)CC3)n(CCS(=O)(=O)c3ccccc3)c2c1 [Compound I-55, N-((1r,4r)-4-Aminocyclohexyl)-6-carbamimidoyl-3-nitro-1-(2-(phenylsulfonyl)ethyl)-1H-indole-2-carboxamide] |
| 25 to 50 | N=C(N)c1ccc2c(N)c(C(=O)N[C@H]3CC[C@H](N)CC3)n(CCS(=O)(=O)c3ccccc3)c2c1 [Compound I-56, 3-Amino-N-((1r,4r)-4-aminocyclohexyl)-6-carbamimidoyl-1-(2-(phenylsulfonyl)ethyl)-1H-indole-2-carboxamide] |
| 0 to 25 | CCOC(=O)Nc1c(C(=O)NC2CCC(N)CC2)n(CCS(=O)(=O)c2ccccc2)c2cc(/C(N)=N/O)ccc12 (stereo not shown) [Compound I-57, Ethyl (2-(((1r,4r)-4-aminocyclohexyl)carbamoyl)-6-((Z)—N′-hydroxycarbamimidoyl)-1-(2-(phenylsulfonyl)ethyl)-1H-indol-3-yl)carbamate] |
| 0 to 25 | N=C(N)c1ccc2c(N)c(C(=O)NCC3CCCCC3)n(CCS(=O)(=O)c3ccccc3)c2c1 [Compound I-58, 3-Amino-6-carbamimidoyl-N-(cyclohexylmethyl)-1-(2-(phenylsulfonyl)ethyl)-1H-indole-2-carboxamide] |

From patent US12428415B2, “Matriptase 2 inhibitors and uses thereof” (Disc Medicine, Inc., priority 2018, dated 2025)
